# Patent US20060013794A1, “Cosmetic or pharmaceutical composition comprising peptides with the sequences arggly-ser” (priority 2002, published 2006)
# Where a SMILES comes first, the peptide text is derived from it.
# Test system: HaCat human keratinocytes
# Experiment: Cell differentiation, immunofluorescence with anti-ERG 1-2 antibodies
# Type: cell-based
# Details: at 24 hours
structure (smiles),measurement,value
N=C(N)NCCC[C@H](N)C(=O)NCC(=O)N[C@@H](CO)C(=O)O [Arg-Gly-Ser] (H-Arg-Gly-Ser-OH),"quantity of ERG molecules present in the cells (fluorescence intensity, cell differentiation marker)",increases
